The assay concerns the target MCH receptor (Homo sapiens, UniProt Q99705). Kind of assay: High Throughput Functional Screening: FLIPR/FDSS6000 intracellular Ca2+ assay, antagonist activity against MCH. The class given is cell-based. On the set-up: class (percent of control at 10^−7 M or IC50): scale not given here. The conditions noted are these: FLIPR/FDSS, [Ca2+]i evoked by 50 nM MCH. An excerpt:
Subsequently, a functional based assay was used to confirm the lead hits, referred to as FLIPR™ (the Fluorometric Imaging Plate Reader) and FDSS6000™ (Functional Drug Screening System). This assay utilized a non-endogenous, constitutively active version of the MCH receptor.
The FLIPR and FDSS assays are able to detect intracellular Ca^2+ concentration in cells, which can be utilized to assess receptor activation and determine whether a candidate compound is an, for example, antagonist, inverse agonist or agonist to a Gq-coupled receptor. The concentration of free Ca^2+ in the cytosol of any cell is extremely low, whereas its concentration in the extracellular fluid and endoplasmic reticulum (ER) is very high. Thus, there is a large gradient tending to drive Ca^2+ into the cytosol across both the plasma membrane and ER. The FLIPR™ and FDSS6000™ systems (Molecular Devices Corporation, HAMAMATSU Photonics K.K.) are designed to perform functional cell-based assays, such as the measurement of intracellular calcium for high-throughput screening. The measurement of fluorescent is associated with calcium release upon activation of the Gq-coupled receptors.
Fluorometric Imaging Plate Reader system was used to allow for rapid, kinetic measurements of intracellular fluorescence in 96 well microplates (or 384 well microplates). Simultaneous measurements of fluorescence in all wells can be made by FLIPR or FDSS6000™ every second with high sensitivity and precision. These systems are ideal for measuring cell-based functional assays such as monitoring the intracellular calcium fluxes that occur within seconds after activation of the Gq coupled receptor.
Briefly, the cells are seeded into 96 well at 5.5×10^4 cells/well with complete culture media (Dulbecco's Modified Eagle Medium with 10% fetal bovine serum, 2 mM L-glutamine, 1 mM sodium pyruvate and 0.5 mg/mL G418, pH 7.4) for the assay next day. On the day of assay, the media is removed and the cells are incubated with 100 μl of loading buffer (4 μM Fluo4-AM in complete culture media containing 2.5 mM Probenicid, 0.5 mg/ml and 0.2% bovine serum albumin) in 5% CO2 incubator at 37° C. for 1 hr. The loading buffer is removed, and the cells are washed with wash buffer (Hank's Balanced Salt Solution containing 2.5 mM Probenicid, 20 mM HEPES, 0.5 mg/mL and 0.2% bovine serum albumin, pH 7.4). One hundred fifty μl of wash buffer containing various concentrations of test compound is added to the cells, and the cells are incubated in 5% CO2 incubator at 37° C. for 30 min. Fifty μl of wash buffer containing various concentration of MCH are added to each well, and transient changes in [Ca^2+]i evoked by MCH are monitored using the FLIPR™ or FDSS in 96 well plates at Ex. 488 nm and Em. 530 nm for 290 second. When antagonist activity of compound is tested, 50 nM of MCH is used.
Use of FLIPR™ and FDSS6000™ can be accomplished by following manufacturer's instruction (Molecular Device Corporation and HAMAMATSU Photonics K.K.).

The mark [1] stands for this setting: class by percent of control at 10^−7 M or IC50.
The mark [2] stands for this setting: non-endogenous constitutively active MCH receptor, read-out: IC50.
Setting [3] is: class by percent of control at 10^−7 M or IC50, read-out: class (percent of control at 10^−7 M or IC50).

pIC50: −log10 of the molar value. Structures can show the parent of a compound that is named as a salt. Where two headings read alike, the source gives them in different places.

Consider `Cc1ccc(N[C@H]2CC[C@@H](NC(=O)c3ccc(F)c(Cl)c3)CC2)nc1.Cl` [Example 2, 3-Chloro-4-fluoro-N-{cis-4-[(5-methylpyridin-2-yl)amino]cyclohexyl}benzamide hydrochloride], for which the “class (percent of control at 10^−7 M or IC50)” value under setting [1] came to 2.
Still for that read-out and setting: as for `Cc1cccc(N[C@H]2CC[C@@H](NC(=O)c3ccc(F)c(Cl)c3)CC2)n1.Cl` [Example 3, 3-Chloro-4-fluoro-N-{cis-4-[(6-methylpyridin-2-yl)amino]cyclohexyl}benzamide hydrochloride], the figure is 2.
For `Cc1cnc(N[C@H]2CC[C@@H](NC(=O)c3ccc(F)c(Cl)c3)CC2)cc1N(C)C` [Example 4, 3-Chloro-N-(cis-4-{[4-(dimethylamino)-5-methylpyridin-2-yl]amino}cyclohexyl)-4-fluorobenzamide hydrochloride], the pIC50 (as a rule, the negative decadic logarithm of the IC50, by convention in mol/L) under setting [2] is 9.00 and the pIC50 under setting [3] was more than 7.30.
For `Cc1cnc(N[C@H]2CC[C@@H](NC(=O)c3cc(F)c(F)c(F)c3)CC2)cc1N(C)C` [Example 5, N-(cis-4-{[4-(Dimethylamino)-5-methylpyridin-2-yl]amino}cyclohexyl)-3,4,5-trifluorobenzamide hydrochloride] the same measures were 8.72 and more than 7.30.
Regarding `Cc1cnc(N[C@H]2CC[C@@H](NC(=O)c3cc(F)cc(Cl)c3)CC2)cc1N(C)C` [Example 6, 3-Chloro-N-(cis-4-{[4-(dimethylamino)-5-methylpyridin-2-yl]amino}cyclohexyl)-5-fluorobenzamide hydrochloride], under setting [3], the pIC50 is more than 7.30.
The same measure, in the same setting: as for `Cc1cnc(N[C@H]2CC[C@@H](NC(=O)c3cc(Cl)cc(Cl)c3)CC2)cc1N(C)C` [Example 7, 3,5-Dichloro-N-(cis-4-{[4-(dimethylamino)-5-methylpyridin-2-yl]amino}cyclohexyl)benzamide hydrochloride], the figure is more than 7.30; as for `Cc1cnc(N[C@H]2CC[C@@H](NC(=O)c3ccc(F)c(F)c3)CC2)cc1N(C)C` [Example 8, N-(cis-4-{[4-(Dimethylamino)-5-methylpyridin-2-yl]amino}cyclohexyl)-3,4-difluorobenzamide hydrochloride], more than 7.30.
The same measure, in the same setting: for `Cc1cnc(N[C@H]2CC[C@@H](NC(=O)c3ccc(Cl)c(Cl)c3)CC2)cc1N(C)C` [Example 9, 3,4-Dichloro-N-(cis-4-{[4-(Dimethylamino)-5-methylpyridin-2-yl]amino}cyclohexyl)benzamide hydrochloride] the value was more than 7.30.
Same read-out and setting: as for `Cc1cnc(N[C@H]2CC[C@@H](NC(=O)c3cccc(Cl)c3)CC2)cc1N(C)C` [Example 10, 3-Chloro-N-(cis-4-{[4-(dimethylamino)-5-methylpyridin-2-yl]amino}cyclohexyl)benzamide hydrochloride], the figure is more than 7.30.
Consider `Cc1cnc(N[C@H]2CC[C@@H](NC(=O)c3cncc(Br)c3)CC2)cc1N(C)C` [Example 11, 5-Bromo-N-(cis-4-{[4-(dimethylamino)-5-methylpyridin-2-yl]amino}cyclohexyl)nicotinamide dihydrochloride], for which, under setting [3], the pIC50 was more than 7.30.
Still for that read-out and setting: for `Cc1cnc(N[C@H]2CC[C@@H](NC(=O)c3cccc(OC(F)(F)F)c3)CC2)cc1N(C)C` [Example 12, N-(cis-4-{[4-(Dimethylamino)-5-methylpyridin-2-yl]amino}cyclohexyl)-3-(trifluoromethoxy)-benzamide hydrochloride] the value was more than 7.30; for `Cc1cnc(N[C@H]2CC[C@@H](NC(=O)c3ccc(F)c(C(F)(F)F)c3)CC2)cc1N(C)C` [Example 13, N-(cis-4-{[4-(Dimethylamino)-5-methylpyridin-2-yl]amino}cyclohexyl)-4-fluoro-3-(trifluoromethyl)benzamide hydrochloride], more than 7.30; for `Cc1cnc(N[C@H]2CC[C@@H](NC(=O)c3cccc(C(F)(F)F)c3)CC2)cc1N(C)C` [Example 14, N-(cis-4-{[4-(Dimethylamino)-5-methylpyridin-2-yl]amino}cyclohexyl)-3-(trifluoromethyl)-benzamide hydrochloride], more than 7.30.
For the molecule `CNc1cc(N[C@H]2CC[C@@H](NC(=O)c3ccc(F)c(Cl)c3)CC2)ncc1C` [Example 15, 3-Chloro-4-fluoro-N-(cis-4-{[5-methyl-4-(methylamino)pyridin-2-yl]amino}cyclohexyl)-benzamide hydrochloride], the pIC50 under setting [3] is more than 7.30.
On the same count and under the same terms, for `CNc1cc(N[C@H]2CC[C@@H](NC(=O)c3cc(F)c(F)c(F)c3)CC2)ncc1C` [Example 16, 3,4,5-Trifluoro-N-(cis-4-{[5-methyl-4-(methylamino)pyridin-2-yl]amino}cyclohexyl)-benzamide hydrochloride] the value was more than 7.30.
On to `Cc1cnc(N[C@H]2CC[C@@H](NC(=O)c3ccc(F)c(Cl)c3)CC2)cc1N.Cl` [Example 17, N-{cis-4-[(4-Amino-5-methylpyridin-2-yl)amino]cyclohexyl}-3-chloro-4-fluorobenzamide hydrochloride], for which, under setting [1], the “class (percent of control at 10^−7 M or IC50)” value came out at 2.
Same read-out and setting: for `Cc1cnc(N[C@H]2CC[C@@H](NC(=O)c3cc(F)c(F)c(F)c3)CC2)cc1N.Cl` [Example 18, N-{cis-4-[(4-Amino-5-methylpyridin-2-yl)amino]cyclohexyl}-3,4,5-trifluorobenzamide hydrochloride] the value was 2; for `CCN(C)c1cc(N[C@H]2CC[C@@H](NC(=O)c3ccc(F)c(Cl)c3)CC2)ncc1C.Cl` [Example 19, 3-Chloro-N-[cis-4-({4-[ethyl(methyl)amino]-5-methylpyridin-2-yl}amino)cyclohexyl]-4-fluorobenzamide hydrochloride], 2.
Still for that read-out and setting: as for `Cc1cnc(N[C@H]2CC[C@@H](NC(=O)c3ccc(F)c(Cl)c3)CC2)cc1N1CCCC1.Cl` [Example 20, 3-Chloro-4-fluoro-N-{cis-4-[(5-methyl-4-pyrrolidin-1-ylpyridin-2-yl)amino]cyclohexyl}-benzamide hydrochloride], the figure is 2; as for `Cc1cnc(N[C@H]2CC[C@@H](NC(=O)Nc3ccc(F)c(Cl)c3)CC2)cc1N(C)C.Cl` [Example 25, N-(3-Chloro-4-fluorophenyl)-N′-(cis-4-{[4-(dimethylamino)-5-methylpyridin-2-yl]amino}cyclohexyl)urea hydrochloride], 2; as for `Cc1cnc(N[C@H]2CC[C@@H](NC(=S)Nc3ccc(F)c(Cl)c3)CC2)cc1N(C)C.Cl` [Example 26, N-(3-Chloro-4-fluorophenyl)-N′-(cis-4-{[4-(dimethylamino)-5-methylpyridin-2-yl]amino}-cyclohexyl)thiourea hydrochloride], 2.
On the same count and under the same terms, for `Cc1cnc(N[C@H]2CC[C@@H](NC(=O)Oc3ccc(Br)cc3)CC2)cc1N(C)C` [Example 27, 4-Bromophenyl (cis-4-{[4-(dimethylamino)-5-methylpyridin-2-yl]amino}cyclohexyl)carbamate] the value was 2.
Take `Cc1cc(N(C)C)cc(N[C@H]2CC[C@@H](NC(=O)c3ccc(F)c(Cl)c3)CC2)n1` [Example 28, 3-Chloro-N-(cis-4-{[4-(dimethylamino)-6-methylpyridin-2-yl]amino}cyclohexyl)-4-fluorobenzamide hydrochloride]: the pIC50 under setting [3] was more than 7.30.
Still for that read-out and setting: for `Cc1cc(N(C)C)cc(N[C@H]2CC[C@@H](NC(=O)c3cc(F)c(F)c(F)c3)CC2)n1` [Example 29, N-(cis-4-{[4-(Dimethylamino)-6-methylpyridin-2-yl]amino}cyclohexyl)-3,4,5-trifluorobenzamide hydrochloride] the value was more than 7.30.
For the molecule `Cc1cnc(N[C@H]2CC[C@@H](CNC(=O)c3ccc(F)c(Cl)c3)CC2)cc1N(C)C.Cl` [Example 32, 3-Chloro-N-[(cis-4-{[4-(dimethylamino)-5-methylpyridin-2-yl]amino}cyclohexyl)methyl]-4-fluorobenzamide hydrochloride], the “class (percent of control at 10^−7 M or IC50)” value under setting [1] came out at 2.

Values taken from patent US20080090863A1, “Pyridine Derivatives and Their Use as Medicaments for Treating Diseases Related to Mch Receptor” (TAISHO PHARMACEUTICAL CO., LTD., priority 2004, published 2008).
